Measured values reported in patent US9718825B2, “N-(4-(azaindazol-6-yl)-phenyl)-sulfonamides and their use as pharmaceuticals” (priority 2013, dated 2017).
Read-outs that look alike come from different tables or passages of the source.

Tests used:
[1] = target: recombinant human SGK-1 enzyme (Homo sapiens, UniProt O00141); experiment: Enzymatic activity assay: SGK-1 substrate peptide phosphorylation (Caliper lab-chip mobility shift); type: biochemical
Protocol: In one of the cellular assays, the SGK-1 dependent phosphorylation of glycogen synthase kinase 3beta (GSK3beta) in U2OS cells was measured, in another one, a functional electrophysiological assay, the SGK-1 dependent activation of epithelial Na^+ channel (ENaC) currents in A6 cell monolayers, and in another one chondrocyte hypertrophic differentiation in mouse chondrogenic ATDC5 cells.
A) Enzymatic Activity Assay
For the determination of the compound dose response, a 10 mM DMSO stock solution was diluted and tested in a ten-point, three-fold dilution series run in duplicate beginning at 30 μM final concentration. Data were analyzed using a four-parameter curve fit with a fixed minimum and maximum experimentally defined as the average positive and negative controls on each plate.

[2] = system: SGK-1 dependent phosphorylation of GSK3beta in U2OS cells; experiment: SGK-1 dependent phosphorylation of GSK3beta in U2OS cells overexpressing recombinant SGK-1 and GSK3beta; type: cell-based, human; conditions: Homo sapiens; U2OS cells, 6 h incubation, ratio of phosphorylated GSK3beta to total GSK3beta; read-out: IC50 values for inhibition of SGK-1 dependent phosphorylation of GSK3beta in U2OS cells
Protocol: B) Determination of the Effect on SGK-1 Dependent Phosphorylation of GSK3beta in U2OS Cells
U2OS cells were cultured in 1:1 Dulbecco modified Eagle medium/Ham's F12 and 10% heat-inactivated fetal calf serum (FCS Gold) at 37° C., 7% CO2 and 95% relative humidity. […] Cell suspension mixed with BacMam viruses was seeded in 96 well pCLEAR plates (Greiner) at 3×10^4 cells per well in 250 μl medium. […] 1 μl of a solution of the test compound at 250×final concentration was added. Cells are incubated at 37° C., 7% CO2 and 95% relative humidity. […] After removing the fixation solution, cells were permeabilised by adding 200 μl PBT (0.2% Triton X-100 in PBS) per well for 5 min. After removing PBT, cells were blocked by adding 200 μl of blocking solution (1% bovine serum albumine in PBS) per well. Blocking solution was removed and 50 μl of primary antibody (rabbit anti-phospho-GSK-3beta (Ser9), and mouse anti-GSK-3beta) were added for 1 h. […] After washing the cells 3 times with PBS, 200 μl of PBS were added. Fluorescence signals were measured with the ImageXpress MICRO (Molecular Devices).

[3] = read-out: IC50 values for inhibition of SGK-1 enzymatic activity, peptide substrate 1 μM, ATP 10 μM, 60 min at 37° C.
[4] = peptide substrate 1 μM, ATP 10 μM, 60 min at 37° C., read-out: IC50 values for inhibition of SGK-1 enzymatic activity

recombinant human SGK-1 enzyme, sequence (O00141 whole entry, looked up): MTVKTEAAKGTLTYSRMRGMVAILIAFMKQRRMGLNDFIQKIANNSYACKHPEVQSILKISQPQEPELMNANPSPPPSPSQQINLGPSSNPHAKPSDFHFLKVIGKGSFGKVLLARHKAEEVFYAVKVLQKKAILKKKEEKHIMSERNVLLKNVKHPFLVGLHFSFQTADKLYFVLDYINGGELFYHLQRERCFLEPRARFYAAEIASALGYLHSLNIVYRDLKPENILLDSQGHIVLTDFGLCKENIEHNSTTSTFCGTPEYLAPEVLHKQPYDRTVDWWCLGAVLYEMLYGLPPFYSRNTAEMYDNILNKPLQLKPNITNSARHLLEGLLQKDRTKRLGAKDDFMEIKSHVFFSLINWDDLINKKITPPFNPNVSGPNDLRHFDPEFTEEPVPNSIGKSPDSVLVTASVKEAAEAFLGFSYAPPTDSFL

| Structure (SMILES) | IC50 [1, 4] [nM] | also measured |
| --- | --- | --- |
| O=S(=O)(Nc1ccc(-c2nc(-c3cccnc3)c3cn[nH]c3n2)cc1)c1cc(Cl)ccc1Cl [Example 5, 2,5-Dichloro-N-[4-(4-pyridin-3-yl-1H-pyrazolo[3,4-d]pyrimidin-6-yl)-phenyl]-benzenesulfonamide] | – | IC50 [1, 3]: < 1.2 nM |
| Cc1nc(-c2ccc(NS(=O)(=O)c3cc(Cl)ccc3F)cc2)nc2[nH]ncc12 [Example 6, 5-Chloro-2-fluoro-N-[4-(4-methyl-1H-pyrazolo[3,4-d]pyrimidin-6-yl)-phenyl]-benzenesulfonamide] | – | IC50 [2]: 2600 nM |
| COc1nc(-c2ccc(NS(=O)(=O)c3cc(Cl)ccc3F)cc2)nc2[nH]nc(N)c12 [Example 7, N-[4-(3-Amino-4-methoxy-1H-pyrazolo[3,4-d]pyrimidin-6-yl)-phenyl]-5-chloro-2-fluoro-benzenesulfonamide] | – | IC50 [1, 3]: < 1.5 nM |
| Cc1ccc(F)c(S(=O)(=O)Nc2ccc(-c3nc(O)c4cn[nH]c4n3)cc2)c1 [Example 108] | 25 | – |
| COc1ccc(C#N)c(S(=O)(=O)Nc2ccc(-c3nc(OC4CCC(O)CC4)c4c(C)n[nH]c4n3)cc2)c1 (stereo not shown) [Example 130] | 13 | – |
| O=S(=O)(Nc1ccc(-c2nc(OCC(F)(F)F)c3cn[nH]c3n2)cc1)c1cc(Cl)ccc1Cl [Example 161] | 19 | – |
| O=S(=O)(Nc1ccc(-c2nc(C3CC3)c3cn[nH]c3n2)cc1)c1ccccc1F [Example 206] | 1100 | – |
| O=S(=O)(Nc1ccc(-c2nc(OC3CCNCC3(F)F)c3cn[nH]c3n2)cc1)c1cc(Cl)ccc1Cl (stereo not shown) [Example 247] | 6.5 | – |
| CC(C)COc1nc(-c2ccc(NS(=O)(=O)c3ccc(F)cc3Cl)cc2)nc2[nH]nc(N)c12 [Example 318] | 950 | – |
| CC(C)COc1nc(-c2ccc(NS(=O)(=O)c3cc(F)c(F)cc3Cl)cc2)nc2[nH]nc(N)c12 [Example 325] | 1100 | – |
| Cc1n[nH]c2nc(-c3ccc(NS(=O)(=O)c4ccccc4F)cc3)nc(OC3CCN(C(C)C)CC3)c12 [Example 352] | 11 | – |
| Cc1n[nH]c2nc(-c3ccc(NS(=O)(=O)c4cc(Cl)ccc4C#N)cc3)nc(OCC(C)C)c12 [Example 354] | 110 | – |
| Nc1n[nH]c2nc(-c3ccc(NS(=O)(=O)c4cc(Cl)ccc4Cl)cc3)nc(OCC3CC3)c12 [Example 355] | 13 | – |
| Cc1n[nH]c2nc(-c3ccc(NS(=O)(=O)c4ccccc4F)cc3)nc(OCC(CO)CO)c12 [Example 360] | 110 | – |
| Cc1ccc(F)c(S(=O)(=O)Nc2ccc(-c3nc(OCC(F)(F)CN)c4c(C)n[nH]c4n3)cc2)c1 [Example 364] | 6.5 | – |
| Cc1ccc(C#N)c(S(=O)(=O)Nc2ccc(-c3nc(OCC(CO)CO)c4c(C)n[nH]c4n3)cc2)c1 [Example 371] | 3.9 | – |
| CCN1CCC(Oc2nc(-c3ccc(NS(=O)(=O)c4ccccc4F)cc3)nc3[nH]nc(C)c23)CC1 [Example 402] | 13 | – |
| COCCN1CCC(Oc2nc(-c3ccc(NS(=O)(=O)c4cc(F)ccc4F)cc3)nc3[nH]nc(C)c23)CC1 [Example 407] | 11 | – |
| Nc1n[nH]c2nc(-c3ccc(NS(=O)(=O)c4cc(Cl)c(F)cc4F)cc3)nc(C3CC3)c12 [Example 448, N-[4-(3-Amino-4-cyclopropyl-1H-pyrazolo[3,4-d]pyrimidin-6-yl)phenyl]-5-chloro-2,4-difluoro-benzenesulfonamide] | – | IC50 [1, 3]: < 1.5 nM |
| Cc1nc(-c2ccc(NS(=O)(=O)c3cccc(C#N)c3)cc2)nc2[nH]nc(N)c12 [Example 471] | 97 | – |
| COCCc1nc(-c2ccc(NS(=O)(=O)c3ccc(F)cc3Cl)cc2)nc2[nH]nc(N)c12 [Example 507] | 1500 | – |
| COCCc1nc(-c2ccc(NS(=O)(=O)c3cc(F)c(F)cc3Cl)cc2)nc2[nH]nc(N)c12 [Example 510] | 1500 | – |
| COCCc1nc(-c2ccc(NS(=O)(=O)c3ccccc3F)cc2)nc2[nH]nc(N)c12 [Example 512] | 1500 | – |
| COCCc1nc(-c2ccc(NS(=O)(=O)c3cc(Cl)ccc3F)cc2)nc2[nH]nc(N)c12 [Example 525] | 25 | – |
| O=C(Nc1n[nH]c2nc(-c3ccc(NS(=O)(=O)c4cc(Cl)ccc4Cl)cc3)ncc12)c1cccc(Cl)c1Cl [Example 540] | 11 | – |
| Nc1n[nH]c2cc(-c3ccc(NS(=O)(=O)c4cc(F)cc(F)c4Cl)cc3)ncc12 [Example 557] | 96 | – |
| N#Cc1ccc(Cl)cc1S(=O)(=O)Nc1ccc(-c2cc3[nH]nc(N)c3c(C(F)(F)F)n2)cc1 [Example 570] | 2 | – |
| Nc1n[nH]c2cc(-c3ccc(NS(=O)(=O)c4cc(F)cc(F)c4Cl)cc3)nc(C(F)(F)F)c12 [Example 576] | 430 | – |

| Structure (SMILES) | IC50 [1, 4] [nM] | also measured |
| --- | --- | --- |
| Nc1n[nH]c2cc(-c3ccc(NS(=O)(=O)c4cccc(Cl)c4F)cc3)nc(C(F)(F)F)c12 [Example 578] | 430 | – |
| Cc1n[nH]c2cc(-c3ccc(NS(=O)(=O)c4cc(F)ccc4F)cc3)nc(OCC3CN(C(C)C)C3)c12 [Example 592] | 2 | – |
| CCCOc1nc(-c2ccc(NS(=O)(=O)c3cc(F)c(F)cc3Cl)cc2)cc2[nH]nc(N)c12 [Example 605] | 23 | – |
| CCOc1nc(-c2ccc(NS(=O)(=O)c3cc(F)c(F)cc3F)cc2)cc2[nH]nc(N)c12 [Example 613] | 19 | – |
| CCOc1nc(-c2ccc(NS(=O)(=O)c3cc(F)c(F)cc3Cl)cc2)cc2[nH]nc(N)c12 [Example 614] | 97 | – |
| Cc1n[nH]c2cc(-c3ccc(NS(=O)(=O)c4cc(Cl)ccc4Cl)cc3)nc(OC3CC(C)(C)N(C)C(C)(C)C3)c12 [Example 620] | 3.9 | – |
| COc1ccc(Oc2nc(-c3ccc(NS(=O)(=O)c4cc(F)ccc4F)cc3)cc3[nH]nc(C)c23)cn1 [Example 622] | 37 | – |
| COc1ccc(Oc2nc(-c3ccc(NS(=O)(=O)c4ccccc4F)cc3)cc3[nH]nc(C)c23)cn1 [Example 624] | 37 | – |
| COc1ccc(Oc2nc(-c3ccc(NS(=O)(=O)c4cc(Cl)ccc4F)cc3)cc3[nH]nc(C)c23)cn1 [Example 634] | 23 | – |
| Cc1n[nH]c2cc(-c3ccc(NS(=O)(=O)c4cc(F)cc(F)c4Cl)cc3)nc(OC3CCN(C4CCC4)CC3)c12 [Example 638] | 11 | – |
| Cc1ccc(Cl)c(S(=O)(=O)Nc2ccc(-c3cc4[nH]nc(C)c4c(OC4CC(C)(C)NC(C)(C)C4)n3)cc2)c1 [Example 648] | 3.9 | – |
| COc1ccc(Cl)c(S(=O)(=O)Nc2ccc(-c3cc4[nH]nc(C)c4c(Oc4ccc(OC)nc4)n3)cc2)c1 [Example 651] | 25 | – |
| COc1ccc(F)c(S(=O)(=O)Nc2ccc(-c3cc4[nH]nc(C)c4c(Oc4ccc(OC)nc4)n3)cc2)c1 [Example 653] | 30 | – |
| COc1ccc(Oc2nc(-c3ccc(NS(=O)(=O)c4cc(C)ccc4F)cc3)cc3[nH]nc(C)c23)cn1 [Example 654] | 37 | – |
| CCCOc1nc(-c2ccc(NS(=O)(=O)c3cc(Cl)ccc3Cl)cc2)cc2[nH]nc(N)c12 [Example 664] | 13 | – |
| COc1cc(Oc2nc(-c3ccc(NS(=O)(=O)c4cc(Cl)ccc4F)cc3)cc3[nH]nc(C)c23)ccn1 [Example 666] | 25 | – |
| COc1cc(Oc2nc(-c3ccc(NS(=O)(=O)c4cc(C)ccc4C#N)cc3)cc3[nH]nc(C)c23)ccn1 [Example 667] | 11 | – |
| COc1cc(Oc2nc(-c3ccc(NS(=O)(=O)c4cc(Cl)ccc4Cl)cc3)cc3[nH]nc(C)c23)ccn1 [Example 669] | 31 | – |
| COc1ccc(Cl)c(S(=O)(=O)Nc2ccc(-c3cc4[nH]nc(C)c4c(Oc4ccnc(OC)c4)n3)cc2)c1 [Example 670] | 25 | – |
| CCOc1nc(-c2ccc(NS(=O)(=O)c3cc(OC)ccc3Cl)cc2)cc2[nH]nc(C)c12 [Example 675] | 15 | – |
| CCOc1nc(-c2ccc(NS(=O)(=O)c3cc(Cl)ccc3F)cc2)cc2[nH]nc(C)c12 [Example 676] | 23 | – |
| Cc1ccc(F)c(S(=O)(=O)Nc2ccc(-c3cc4[nH]nc(C)c4c(OCCC(=O)N(C)C)n3)cc2)c1 [Example 686] | 11 | – |
| Cc1n[nH]c2cc(-c3ccc(NS(=O)(=O)c4cc(Cl)ccc4F)cc3)nc(OCCC(=O)N(C)C)c12 [Example 687] | 15 | – |
| COc1ccc(Cl)c(S(=O)(=O)Nc2ccc(-c3cc4[nH]nc(C)c4c(OCCC(=O)N(C)C)n3)cc2)c1 [Example 689] | 13 | – |
| COc1ccc(F)c(S(=O)(=O)Nc2ccc(-c3cc4[nH]nc(C)c4c(OCCC(=O)N(C)C)n3)cc2)c1 [Example 692] | 6.5 | – |
| Cc1n[nH]c2cc(-c3ccc(NS(=O)(=O)c4cc(Cl)ccc4F)cc3)nc(Oc3ccc(N(C)C)nc3)c12 [Example 694] | 25 | – |
| COc1ccc(Cl)c(S(=O)(=O)Nc2ccc(-c3cc4[nH]nc(C)c4c(Oc4ccc(N(C)C)nc4)n3)cc2)c1 [Example 699] | 25 | – |
